Data on two compounds can be found in ChEMBL document CHEMBL1132232, “7alpha-Iodo and 7alpha-fluoro steroids as androgen receptor-mediated imaging agents” (J Med Chem, 1999).

The structures appear in SMILES notation.

The assay deals with T1, Androgen receptor (Homo sapiens) (UniProt P10275).
T1 sequence (whole entry): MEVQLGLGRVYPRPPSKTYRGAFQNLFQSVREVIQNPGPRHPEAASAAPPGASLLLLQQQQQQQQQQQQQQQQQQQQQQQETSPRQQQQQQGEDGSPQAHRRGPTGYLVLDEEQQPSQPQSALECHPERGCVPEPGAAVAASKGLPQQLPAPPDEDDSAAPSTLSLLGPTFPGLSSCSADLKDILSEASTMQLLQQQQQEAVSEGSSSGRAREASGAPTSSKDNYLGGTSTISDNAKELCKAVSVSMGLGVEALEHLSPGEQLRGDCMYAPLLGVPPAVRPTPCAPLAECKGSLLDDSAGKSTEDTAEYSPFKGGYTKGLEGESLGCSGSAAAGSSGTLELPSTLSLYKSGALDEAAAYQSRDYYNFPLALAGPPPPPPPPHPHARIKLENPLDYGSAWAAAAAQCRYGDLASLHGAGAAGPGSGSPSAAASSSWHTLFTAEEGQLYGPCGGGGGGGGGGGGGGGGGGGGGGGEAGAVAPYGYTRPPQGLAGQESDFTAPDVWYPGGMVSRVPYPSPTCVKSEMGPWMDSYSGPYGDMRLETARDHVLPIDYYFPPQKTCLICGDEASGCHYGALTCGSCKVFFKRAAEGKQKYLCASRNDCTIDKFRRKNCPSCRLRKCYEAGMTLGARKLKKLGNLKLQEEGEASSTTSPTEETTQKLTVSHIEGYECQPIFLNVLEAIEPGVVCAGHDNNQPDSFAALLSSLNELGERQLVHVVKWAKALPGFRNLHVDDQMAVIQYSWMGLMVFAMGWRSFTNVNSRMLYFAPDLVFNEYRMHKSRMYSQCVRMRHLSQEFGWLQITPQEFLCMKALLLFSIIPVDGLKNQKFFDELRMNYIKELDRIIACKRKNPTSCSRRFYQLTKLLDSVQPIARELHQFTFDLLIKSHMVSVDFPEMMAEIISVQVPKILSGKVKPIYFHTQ
To be noted: CV-1.

Description: Relative stimulatory activity compared to 5-alpha-DHT in CV-1 cells expressing androgen receptor

Consider `CC12CC[C@@H]3C4CCC(=O)CC4C[C@@H](I)[C@H]3[C@@H]1CC[C@]2(C)O` (some centres not stated), for which the RSA worked out at 8.

`CC12CCC(=O)CC1C[C@@H](F)[C@@H]1[C@@H]2CCC2(C)[C@H]1CC[C@]2(C)O` (some centres not stated) displayed an RSA of 418.
